Laboratory results: US9963433B2, “Anticancer drugs including the chemical structures of an androgen receptor ligand and a histone deacetylase inhibitor” (Wayne State University, priority 2016, dated 2018)

What was measured:
[1] = tested on: AR chromatin association at KLK3 ARE enhancer elements; experiment: ChIP of AR at KLK3 enhancer in C4-2 cells; settings: compound 10 μM, R1881 1 nM or 10 nM, 2 h, FIG. 3C
Protocol: (3C) C4-2 cells plated in hormone-depleted medium were treated with either vehicle, R1881, or the indicated compound for 2 h. Cells were harvested and subjected to ChIP using AR antibody. Taqman probes targeting ARE enhancer elements associated with the KLK3 gene were used to quantify the immunoprecipitated chromatin.
Chromatin Immunoprecipitation (ChIP). […] The ChIP signals were measured by quantitative real time PCR analysis of the immunoprecipitated products.
As a target site for the ChIP assay, the well-established AR binding enhancer elements located 4 kb upstream of the transcription initiation site of the KLK3 gene was chosen.

AR = target: T1, AR (Homo sapiens, UniProt P10275, T878A); experiment: Western blot of AR protein in C4-2 cells; assay type: cell-based; settings: 1 μM to 10 μM, 24 h, relative to GAPDH, FIG. 4A
T1 construct: endogenous in cells; host or cells: C4-2 cells
T1 sequence (P10275 1-920 T878A): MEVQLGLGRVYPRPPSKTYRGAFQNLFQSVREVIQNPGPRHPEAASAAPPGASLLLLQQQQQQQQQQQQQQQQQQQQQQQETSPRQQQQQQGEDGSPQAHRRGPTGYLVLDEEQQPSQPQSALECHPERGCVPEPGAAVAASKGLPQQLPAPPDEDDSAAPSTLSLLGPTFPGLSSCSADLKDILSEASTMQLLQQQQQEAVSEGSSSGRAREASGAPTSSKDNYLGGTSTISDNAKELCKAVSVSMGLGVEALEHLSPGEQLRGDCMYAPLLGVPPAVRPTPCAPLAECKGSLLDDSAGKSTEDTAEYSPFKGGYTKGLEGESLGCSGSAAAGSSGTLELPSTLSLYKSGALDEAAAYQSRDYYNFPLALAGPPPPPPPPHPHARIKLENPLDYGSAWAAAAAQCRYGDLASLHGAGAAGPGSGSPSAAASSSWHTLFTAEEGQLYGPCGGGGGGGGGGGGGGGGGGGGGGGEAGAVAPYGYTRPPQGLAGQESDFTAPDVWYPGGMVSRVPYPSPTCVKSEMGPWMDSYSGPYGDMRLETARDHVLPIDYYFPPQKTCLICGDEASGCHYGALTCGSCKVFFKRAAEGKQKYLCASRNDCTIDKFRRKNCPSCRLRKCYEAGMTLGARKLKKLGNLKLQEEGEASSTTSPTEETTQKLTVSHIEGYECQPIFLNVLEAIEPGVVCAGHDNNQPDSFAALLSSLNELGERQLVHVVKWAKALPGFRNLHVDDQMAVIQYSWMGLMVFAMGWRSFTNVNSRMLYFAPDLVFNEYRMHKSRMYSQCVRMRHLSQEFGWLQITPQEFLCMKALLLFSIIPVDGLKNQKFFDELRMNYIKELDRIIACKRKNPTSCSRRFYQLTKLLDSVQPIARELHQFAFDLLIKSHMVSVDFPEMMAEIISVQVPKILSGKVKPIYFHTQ
Protocol: Cells were then harvested for western blot analysis using antibody to AR (4A), HSP90 (4B), Acetyl-Lysine (4C) or GAPDH (loading control). ImageJ software was used to determine the intensities of the bands relative to the vehicle control for each protein. The values were then divided by the values for GAPDH within the same samples.
Western Blot Analysis. Cells were washed once with phosphate buffered saline (PBS) and then lysed with RIPA buffer (150 mM NaCl, 1% Nonidet P-40, 0.5% sodium deoxycholate, 0.1% SDS, 50 mM Tris of pH 8.0) containing a protease inhibitor cocktail (Pierce, Thermo Fisher Scientific). The cell lysates were then incubated on ice for 40 minutes. Total protein concentrations were estimated using the Bradford Assay (Bio-Rad). Protein samples (10-40 ug) were heated at 95° C. for 5 minutes and resolved by electrophoresis on 8% polyacrylamide-SDS gels and electrophoretically transferred to PVDF membranes (Millipore, Billerica, Mass.). The membranes were then probed overnight at 4° C. with the appropriate primary antibody followed by the appropriate horseradish peroxidase-conjugated secondary antibody.

Compound | chromatin association of AR (ChIP signal) [1] | AR protein level (degradation) (AR)
CNC(=O)c1ccc(N2C(=S)N(c3ccc(C#N)c(C(F)(F)F)c3)C(=O)C2(C)C)cc1F [Enz, Enzalutamide, reference compound] | basal ChIP signal | –
CC1(C)C(=O)N(c2ccc(C#N)c(C(F)(F)F)c2)C(=S)N1c1ccc(C(=O)NCCCCCCC(=O)NO)c(F)c1 [Compound 2-75, 4-(3-(4-cyano-3-(trifluoromethyl)phenyl)-5,5-dimethyl-4-oxo-2-thioxoimidazolidin-1-yl)-2-fluoro-N-(7-(hydroxyamino)-7-oxoheptyl)benzamide] | basal ChIP signal | more efficiently induced AR protein degradation
CC1(C)C(=O)N(c2ccc(C#N)c(C(F)(F)F)c2)C(=S)N1c1ccc(/C=C/C(=O)NO)c(F)c1 [Compound 1005, (E)-3-(4-(3-(4-cyano-3-(trifluoromethyl)phenyl)-5,5-dimethyl-4-oxo-2-thioxoimidazolidin-1-yl)-2-fluorophenyl)-N-hydroxyacrylamide] | – | more efficiently induced AR protein degradation
